The values below come from EP4745138A1, “THIO-GLUTARIMIDO ISOINDOLINONE DERIVATIVE, BIFUNCTIONAL PROTEIN DEGRADER CONTAINING SAME, AND USES THEREOF” (Gluetacs Therapeutics (Shanghai) Co., Ltd., priority 2023, dated 2025).

Like-named read-outs stand apart in the source and are kept apart here.

One assay deals with EGFR. As to the kind of experiment: Western blot, target protein degradation in H1975 Cell. Format: cell-based, Human. As to conditions: substrate protein remaining %, treated at 500 nM and 50 nM, 24 hours. As for the experimental part: (§1) Conventional Western blot assay was performed to evaluate the effects of the compounds of the present disclosure on the expression of target proteins in cells.
(§2) (1) Cell Seeding and Protein Harvesting: The selected cells were processed according to the cell seeding procedure and protein harvesting procedure in Table II-2. Table II-2 Cell Seeding and Protein Harvesting Procedures
(§3) (2) To the collected supernatant, 5X SDS sample loading buffer was added, followed by denaturation at 95°C for 5 minutes. The denatured samples were then separated by SDS-PAGE electrophoresis on a polyacrylamide gel. Proteins were transferred to a nitrocellulose membrane (0.45 µm NC membrane), blocked with blocking buffer at room temperature for 1 hour, and subjected to antibody incubation and development procedures according to the antibody manufacturer's instructions (Cell Signaling Technology).
(§4) Half-Maximal Degradation Concentration value (the drug concentration required for degrading proteins by 50%, abbreviated as DC50) reads method: comparing the grayscale values of Western blot bands from drug-treated samples with those from blank DMSO-treated controls, and identifying the drug concentration range at which the grayscale value is half that of the DMSO-treated control bands.
(§5) DC50 values can be calculated using ImageJ software to measure grayscale values of Western blot bands from drug-treated samples. The concentration-response curve is fitted to estimate the drug concentration corresponding to half the grayscale value.
(§6) Target protein remaining (%) refers to the percentage of target protein remaining in cells after treatment with protein degrader compounds.
(§7) Calculation method for target protein remaining (%): Use ImageJ software to measure grayscale values of Western blot bands from drug (protein degrader)-treated samples. The grayscale value of drug-treated bands is divided by that of internal control protein bands, and the resulting quotient is normalized to obtain the relative percentage of remaining target protein after protein degrader treatment. Target protein degradation rate(%) = 1−target protein remaining(%). [formula]
A general note: A western blot detects proteins with antibodies after separation by electrophoresis.

Another assay deals with MV-4-11. Put plainly: Tumor cell proliferation inhibition (CellTiter-Meiluncell Luminescent Cell Viability Assay). Type of assay: cell-based. The following applies: Homo sapiens, 96 hours; for inhibition at 0.01 µM: MV4-11, 10 nM, read-out: Inhibition Rate at 10 nM (%); for inhibition at 0.5 µM: MV4-11, 500 nM, read-out: Inhibition Rate at 500 nM (%). In outline: (§8)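 Following overnight seeding, tumor cells received serial compound dilutions to final levels that included 10 nM and 500 nM. Viability was assessed by luminescence at the end of the specified exposure time. Cultures were kept at 37°C with 5% CO2.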

A further assay deals with RPMI-8226. The description is as above. Format: cell-based. The following applies: Homo sapiens, 96 hours; for inhibition at 0.01 µM: 10 nM, read-out: Inhibition Rate at 10 nM (%); for inhibition at 0.5 µM: 500 nM, read-out: Inhibition Rate at 500 nM (%). In outline:
as §8

Assay [1] has as its target T1, human Cereblon WT GST-tagged protein (Homo sapiens, UniProt Q96SW2).
T1 construct: purchased CISBIO 64BDCRBNPEH
As to the kind of experiment: CRBN-binding affinity, HTRF (CEREBLON BINDING kit). As to conditions: for inhibition at 0.5 µM: read-out: Inhibition Rate at 0.5 µM (%); for inhibition at 2 µM: read-out: Inhibition Rate at 2 µM (%). In outline:
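Readout is homogeneous time-resolved fluorescence, measuring displacement of a thalidomide-red tracer from GST-tagged Cereblon detected by a europium anti-GST antibody. Compounds were tested at final 2 µM and 0.5 µM after dilution in diluent #9 (1X).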
On the technique in general: Time-resolved FRET reads energy transfer from a long-lived donor to a nearby acceptor.

In the next assay the test system is H1975. Put plainly: Tumor cell proliferation inhibition (CellTiter-Meiluncell Luminescent Cell Viability Assay). Format: cell-based. The following applies: Homo sapiens, 96 hours, Table I-3, EGFR inhibitors. In outline: as §8
The test system of the next assay is SW620. The description is as above. Format: cell-based. As to conditions: Homo sapiens, 96 hours, Table I-10, BCR-ABL inhibitors. In outline:
as §8

The subject of another assay is MM.1S. Described as above. Format: cell-based. As to conditions: Homo sapiens, MM1.S, MM.1S, 96 hours, Table I-10, BCR-ABL inhibitors; for inhibition at 0.01 µM: 10 nM, read-out: Inhibition Rate at 10 nM (%); for inhibition at 0.5 µM: 500 nM, read-out: Inhibition Rate at 500 nM (%). In outline: as §8
The target in another assay is T2, BCR-ABL (Homo sapiens, UniProt P00519+P11274+Q96SW2, E27K).
T2 construct: endogenous in cells; host or cells: K562
T2 sequence (P11274+P00519 fused, stated change not applied): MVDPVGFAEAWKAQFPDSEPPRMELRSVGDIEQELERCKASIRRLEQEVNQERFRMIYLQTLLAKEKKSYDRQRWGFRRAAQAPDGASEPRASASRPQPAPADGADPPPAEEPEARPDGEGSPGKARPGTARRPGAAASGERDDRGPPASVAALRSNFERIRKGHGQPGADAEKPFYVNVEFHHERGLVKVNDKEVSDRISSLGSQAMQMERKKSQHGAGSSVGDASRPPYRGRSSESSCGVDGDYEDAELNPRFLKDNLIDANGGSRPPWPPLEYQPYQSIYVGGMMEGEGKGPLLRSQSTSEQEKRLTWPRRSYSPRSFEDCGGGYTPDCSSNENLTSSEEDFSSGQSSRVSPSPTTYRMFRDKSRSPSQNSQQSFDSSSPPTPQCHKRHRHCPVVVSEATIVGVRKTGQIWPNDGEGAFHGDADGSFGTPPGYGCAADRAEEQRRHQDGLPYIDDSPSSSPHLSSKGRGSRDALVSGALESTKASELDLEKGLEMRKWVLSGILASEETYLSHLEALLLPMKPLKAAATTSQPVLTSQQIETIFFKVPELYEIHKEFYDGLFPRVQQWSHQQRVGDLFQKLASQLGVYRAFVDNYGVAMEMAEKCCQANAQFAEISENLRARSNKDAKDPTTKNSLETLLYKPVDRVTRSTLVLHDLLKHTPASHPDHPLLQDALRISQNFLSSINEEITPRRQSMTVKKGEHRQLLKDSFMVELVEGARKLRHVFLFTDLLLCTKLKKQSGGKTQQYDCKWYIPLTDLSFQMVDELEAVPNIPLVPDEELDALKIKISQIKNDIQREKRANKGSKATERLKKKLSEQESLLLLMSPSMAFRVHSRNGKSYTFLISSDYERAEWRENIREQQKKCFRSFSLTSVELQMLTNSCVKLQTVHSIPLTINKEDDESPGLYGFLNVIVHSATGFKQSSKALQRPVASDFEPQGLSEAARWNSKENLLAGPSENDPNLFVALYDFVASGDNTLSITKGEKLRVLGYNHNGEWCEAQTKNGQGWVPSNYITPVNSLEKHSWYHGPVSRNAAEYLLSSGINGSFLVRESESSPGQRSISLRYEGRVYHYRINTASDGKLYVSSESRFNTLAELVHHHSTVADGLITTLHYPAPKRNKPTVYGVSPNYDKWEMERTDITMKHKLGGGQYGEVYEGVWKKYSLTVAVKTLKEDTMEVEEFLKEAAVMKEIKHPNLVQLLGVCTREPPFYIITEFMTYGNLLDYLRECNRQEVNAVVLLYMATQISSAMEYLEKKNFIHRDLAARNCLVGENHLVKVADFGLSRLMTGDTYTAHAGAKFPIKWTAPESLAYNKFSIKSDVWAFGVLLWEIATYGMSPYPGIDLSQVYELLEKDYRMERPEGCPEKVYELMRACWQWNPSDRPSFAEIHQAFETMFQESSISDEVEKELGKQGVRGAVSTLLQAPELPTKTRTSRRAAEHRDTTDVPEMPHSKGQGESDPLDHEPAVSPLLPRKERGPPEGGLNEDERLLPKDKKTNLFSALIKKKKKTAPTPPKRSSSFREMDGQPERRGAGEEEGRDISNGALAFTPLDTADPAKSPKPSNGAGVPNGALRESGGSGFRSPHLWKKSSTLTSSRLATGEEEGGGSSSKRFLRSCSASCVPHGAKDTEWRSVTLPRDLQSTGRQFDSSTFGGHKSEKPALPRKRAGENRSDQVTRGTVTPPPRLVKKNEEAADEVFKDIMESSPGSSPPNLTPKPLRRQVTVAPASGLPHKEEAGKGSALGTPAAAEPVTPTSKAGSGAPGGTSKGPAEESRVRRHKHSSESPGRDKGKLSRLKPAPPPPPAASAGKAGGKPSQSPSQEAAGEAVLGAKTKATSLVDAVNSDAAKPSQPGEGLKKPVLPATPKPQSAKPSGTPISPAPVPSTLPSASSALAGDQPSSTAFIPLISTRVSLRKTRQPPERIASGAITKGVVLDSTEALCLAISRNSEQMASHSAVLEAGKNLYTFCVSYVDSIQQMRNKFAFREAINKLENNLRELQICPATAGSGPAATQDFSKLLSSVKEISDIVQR
T2 sequence (Q96SW2 whole entry, stated change not applied): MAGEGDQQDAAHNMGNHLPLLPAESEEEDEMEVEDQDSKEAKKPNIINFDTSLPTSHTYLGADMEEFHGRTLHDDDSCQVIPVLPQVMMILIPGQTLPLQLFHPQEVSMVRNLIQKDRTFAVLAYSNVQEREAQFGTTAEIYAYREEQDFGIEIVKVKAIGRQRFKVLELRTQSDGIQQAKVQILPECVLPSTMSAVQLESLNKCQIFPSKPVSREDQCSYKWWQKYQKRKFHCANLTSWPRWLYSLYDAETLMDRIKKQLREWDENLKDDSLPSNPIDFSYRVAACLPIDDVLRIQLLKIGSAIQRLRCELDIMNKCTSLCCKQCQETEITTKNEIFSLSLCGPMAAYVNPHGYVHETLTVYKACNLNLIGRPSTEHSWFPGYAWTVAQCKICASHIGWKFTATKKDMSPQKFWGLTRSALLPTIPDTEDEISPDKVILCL
T2 sequence (Q16531 whole entry partner): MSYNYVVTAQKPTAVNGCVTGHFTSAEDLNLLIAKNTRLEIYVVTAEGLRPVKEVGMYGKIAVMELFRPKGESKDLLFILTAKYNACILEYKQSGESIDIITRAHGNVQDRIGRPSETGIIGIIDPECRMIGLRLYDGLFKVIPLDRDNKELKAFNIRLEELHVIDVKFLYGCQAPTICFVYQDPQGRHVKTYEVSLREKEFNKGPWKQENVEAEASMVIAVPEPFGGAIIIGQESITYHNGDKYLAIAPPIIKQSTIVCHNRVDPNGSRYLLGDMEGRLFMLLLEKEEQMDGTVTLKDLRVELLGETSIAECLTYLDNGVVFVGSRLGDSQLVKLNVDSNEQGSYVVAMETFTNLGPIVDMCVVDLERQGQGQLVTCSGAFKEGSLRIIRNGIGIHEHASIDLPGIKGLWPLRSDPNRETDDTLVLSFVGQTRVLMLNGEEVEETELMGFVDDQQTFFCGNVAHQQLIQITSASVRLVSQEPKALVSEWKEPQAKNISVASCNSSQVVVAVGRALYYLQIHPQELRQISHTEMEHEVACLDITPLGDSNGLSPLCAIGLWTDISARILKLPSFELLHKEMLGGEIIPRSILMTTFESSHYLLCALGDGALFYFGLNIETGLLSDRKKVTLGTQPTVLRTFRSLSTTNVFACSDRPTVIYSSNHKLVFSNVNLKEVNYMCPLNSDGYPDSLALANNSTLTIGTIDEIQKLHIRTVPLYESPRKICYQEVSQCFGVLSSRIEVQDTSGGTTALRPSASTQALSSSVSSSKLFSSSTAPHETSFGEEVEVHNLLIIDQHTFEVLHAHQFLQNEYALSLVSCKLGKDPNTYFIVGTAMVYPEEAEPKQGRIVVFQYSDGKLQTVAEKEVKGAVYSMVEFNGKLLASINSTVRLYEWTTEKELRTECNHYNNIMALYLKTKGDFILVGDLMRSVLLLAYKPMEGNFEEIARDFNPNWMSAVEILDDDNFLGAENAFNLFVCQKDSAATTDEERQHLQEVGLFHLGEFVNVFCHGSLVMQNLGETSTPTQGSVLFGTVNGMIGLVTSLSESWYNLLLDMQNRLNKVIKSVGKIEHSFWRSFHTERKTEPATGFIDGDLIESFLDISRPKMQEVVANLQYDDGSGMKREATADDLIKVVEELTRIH
Put plainly: Western blot, target protein degradation in K562 Cell. Type of assay: cell-based. The following applies: substrate protein remaining %, treated at 500 nM and 50 nM, 24 hours. As to the method:
as §1, §2, §3, §4, §5, §6, §7

T1 sequence (Q96SW2 whole entry): as the sequence (Q96SW2 whole entry, stated change not applied) above

As usually defined, the inhibition is how much of the control response was suppressed. In the case of `COc1cc(N2CCC(N(C)Cc3ccc4c(c3)C(=S)N(C3CCC(=O)NC3=O)C4)CC2)c(C)cc1Nc1ncc(Br)c(Nc2ccc3nccnc3c2P(C)(C)=O)n1` (stereo not shown) [GT-08761, 3-(6-(((1-(4-((5-bromo-4-((5-(dimethylphosphoryl)quinoxalin-6-yl)amino)pyrimidin-2-yl)amino)-5-methoxy-2-methylphenyl)piperidin-4-yl)(methyl)amino)methyl)-1-thioxoisoindolin-2-yl)piperidine-2,6-dione], the “Degradation of substrate protein EGFR” value with EGFR is reported as “A (0% ≤ substrate protein remaining % ≤ 80%)”. Besides, the inhibition at 0.01 µM was 5 to 10% in the assay on MV-4-11 (Table I-3, EGFR inhibitors) and 20 to 30% in the assay on RPMI-8226 (Table I-3, EGFR inhibitors). Besides, the inhibition at 0.5 µM in the assay with MV-4-11 (Table I-3, EGFR inhibitors) is 60 to 70%; in the assay on RPMI-8226 (Table I-3, EGFR inhibitors), 40 to 50%; in assay [1], 60 to 80%. The inhibition at 2 µM in assay [1] lay within 80 to 100%.
As to `COc1cc(N2CCC(N3CCN(Cc4ccc5c(c4)C(=S)N(C4CCC(=O)NC4=O)C5)CC3)CC2)c(C)cc1Nc1ncc(Br)c(Nc2ccc3nccnc3c2P(C)(C)=O)n1` (stereo not shown) [GT-08762, 3-(6-((4-(1-(4-((5-bromo-4-((5-(dimethylphosphoryl)quinoxalin-6-yl)amino)pyrimidin-2-yl)amino)-5-methoxy-2-methylphenyl)piperidin-4-yl)piperazin-1-yl)methyl)-1-thioxoisoindolin-2-yl)piperidine-2,6-dione], in the assay with EGFR, the “Degradation of substrate protein EGFR” value is recorded as “A (0% ≤ substrate protein remaining % ≤ 80%)”. Besides, in the assay with MV-4-11 (Table I-3, EGFR inhibitors), the inhibition at 0.01 µM lay within 30 to 40% and the inhibition at 0.5 µM lay within 80 to 100%. In addition, in the assay on RPMI-8226 (Table I-3, EGFR inhibitors), the inhibition at 0.01 µM is 30 to 40% and the inhibition at 0.5 µM lay in the range of 40 to 50%. In addition, in assay [1], the inhibition at 0.5 µM lay in the range of 60 to 80% and the inhibition at 2 µM lay within 80 to 100%.
For the compound `COC1CCN(c2nccc(Nc3cc4c(cn3)c(N3CCN(Cc5ccc6c(c5)C(=S)N(C5CCC(=O)NC5=O)C6)CC3)nn4C(C)C)n2)CC1` (stereo not shown) [GT-08763, 3-(6-((4-(1-isopropyl-6-((2-(4-methoxypiperidin-1-yl)pyrimidin-4-yl)amino)-1H-pyrazolo[4,3-c]pyridin-3-yl)piperazin-1-yl)methyl)-1-thioxoisoindolin-2-yl)piperidine-2,6-dione], the “Degradation of substrate protein EGFR” value in the assay on EGFR is “A (0% ≤ substrate protein remaining % ≤ 80%)”. Also, the inhibition at 0.01 µM was 30 to 40% in the assay with MV-4-11 (Table I-3, EGFR inhibitors) and 30 to 40% in the assay on RPMI-8226 (Table I-3, EGFR inhibitors). In addition, the inhibition at 0.5 µM in the assay on MV-4-11 (Table I-3, EGFR inhibitors) was 50 to 60%; in the assay on RPMI-8226 (Table I-3, EGFR inhibitors) it was 50 to 60%; in assay [1] it was 30 to 40%. In addition, the inhibition at 2 µM in assay [1] was in the range of 80 to 100%.
On to `O=C1CCC(N2Cc3ccc(CN4C[C@H]5C[C@@H]4CN5c4ccc(-c5cc(F)c6c(c5)C(=O)N(C(C(=O)Nc5nccs5)c5ncn7c5CCC7)C6)cc4)cc3C2=S)C(=O)N1` (stereo partly drawn) [GT-08764, 2-(6,7-dihydro-5H-pyrrolo[1,2-c]imidazol-1-yl)-2-(6-(4-((1R,4R)-5-((2-(2,6-dioxopiperidin-3-yl)-3-thioxoisoindolin-5-yl)methyl)-2,5-diazabicyclo[2.2.1]heptan-2-yl)phenyl)-4-fluoro-1-oxoisoindolin-2-yl)-N-(thiazol-2-yl)acetamide], for which the “Degradation of substrate protein EGFR” value in the assay with EGFR is recorded as “A (0% ≤ substrate protein remaining % ≤ 80%)”. Moreover, in the assay on H1975 (NCI-H1975, 10 nM, read-out: Inhibition Rate at 10 nM (%)), the inhibition at 0.01 µM lay in the range of 20 to 30%. The inhibition at 0.5 µM is 50 to 60% in the assay with H1975 (NCI-H1975, 500 nM, read-out: Inhibition Rate at 500 nM (%)) and 60 to 80% in assay [1]. For the same compound, in assay [1], the inhibition at 2 µM was in the range of 60 to 80%.
With `Cc1ccc(C(=O)Nc2ccc(CN3CCN(Cc4ccc5c(c4)CN(C4CCC(=O)NC4=O)C5=S)CC3)c(C(F)(F)F)c2)cc1C#Cc1cnc2cccnn12` (stereo not shown) [GT-08767, N-(4-((4-((2-(2,6-dioxopiperidin-3-yl)-1-thioxoisoindolin-5-yl)methyl)piperazin-1-yl)methyl)-3-(trifluoromethyl)phenyl)-3-(imidazo[1,2-b]pyridazin-3-ylethynyl)-4-methylbenzamide], the inhibition at 0.01 µM fell in the range of 80 to 100% in the assay with MV-4-11 (Table I-10, BCR-ABL inhibitors); 40 to 50% in the assay on SW620 (SW-620, 10 nM, read-out: Inhibition Rate at 10 nM (%)); 20 to 30% in the assay on RPMI-8226 (Table I-10, BCR-ABL inhibitors); 70 to 80% with MM.1S. Further, the inhibition at 0.5 µM in the assay on MV-4-11 (Table I-10, BCR-ABL inhibitors) was 80 to 100%; in the assay on SW620 (SW-620, 500 nM, read-out: Inhibition Rate at 500 nM (%)), 80 to 100%; in the assay with RPMI-8226 (Table I-10, BCR-ABL inhibitors) it was 80 to 100%; in the assay on MM.1S it was 80 to 100%. Further, the “Degradation of substrate protein BCR-ABL” value at BCR-ABL was “A (0% ≤ substrate protein remaining % ≤ 80%)”.
Consider `Cc1ccc(C(=O)Nc2ccc(N3CCN(Cc4ccc5c(c4)CN(C4CCC(=O)NC4=O)C5=S)CC3)c(C(F)(F)F)c2)cc1C#Cc1cnc2cccnn12` (stereo not shown) [GT-08768, N-(4-(4-((2-(2,6-dioxopiperidin-3-yl)-1-thioxoisoindolin-5-yl)methyl)piperazin-1-yl)-3-(trifluoromethyl)phenyl)-3-(imidazo[1,2-b]pyridazin-3-ylethynyl)-4-methylbenzamide], for which the “Degradation of substrate protein BCR-ABL” value at BCR-ABL was “A (0% ≤ substrate protein remaining % ≤ 80%)”.
In the case of `O=C1CCC(N2Cc3cc(CN4CCN(C5CCN(c6ncc(C(=O)Nc7ccc(OC(F)(F)Cl)cc7)cc6-c6cc[nH]n6)CC5)CC4)ccc3C2=S)C(=O)N1` (stereo not shown) [GT-08770, N-(4-(chlorodifluoromethoxy)phenyl)-6-(4-(4-((2-(2,6-dioxopiperidin-3-yl)-1-thioxoisoindolin-5-yl)methyl)piperazin-1-yl)piperidin-1-yl)-5-(1H-pyrazol-3-yl)nicotinamide], in the assay on RPMI-8226 (Table I-10, BCR-ABL inhibitors), the inhibition at 0.01 µM fell in the range of 10 to 20% and the inhibition at 0.5 µM was in the range of 40 to 50%. Further, in the assay on MM.1S, the inhibition at 0.01 µM was in the range of 5 to 10% and the inhibition at 0.5 µM lay in the range of 30 to 40%. In addition, the “Degradation of substrate protein BCR-ABL” value on BCR-ABL is on record as “A (0% ≤ substrate protein remaining % ≤ 80%)”. For the same compound, in assay [1], the inhibition at 0.5 µM fell in the range of 20 to 30% and the inhibition at 2 µM lay in the range of 60 to 80%.
For the compound `Cc1ccc(C(=O)Nc2ccc(N3CCN(Cc4cccc5c4CN(C4CCC(=O)NC4=O)C5=S)CC3)c(C(F)(F)F)c2)cc1C#Cc1cnc2cccnn12` (stereo not shown) [GT-08774, N-(4-(4-((2-(2,6-dioxopiperidin-3-yl)-1-thioxoisoindolin-4-yl)methyl)piperazin-1-yl)-3-(trifluoromethyl)phenyl)-3-(imidazo[1,2-b]pyridazin-3-ylethynyl)-4-methylbenzamide], in the assay on MV-4-11 (Table I-10, BCR-ABL inhibitors), the inhibition at 0.01 µM lay within 20 to 30% and the inhibition at 0.5 µM lay in the range of 70 to 80%. Moreover, the “Degradation of substrate protein BCR-ABL” value at BCR-ABL is given as “A (0% ≤ substrate protein remaining % ≤ 80%)”.
As to `O=C1CCC(N2Cc3c(CN4CCN(C5CCN(c6ncc(C(=O)Nc7ccc(OC(F)(F)Cl)cc7)cc6-c6cc[nH]n6)CC5)CC4)cccc3C2=S)C(=O)N1` (stereo not shown) [GT-08776, N-(4-(chlorodifluoromethoxy)phenyl)-6-(4-(4-((2-(2,6-dioxopiperidin-3-yl)-1-thioxoisoindolin-4-yl)methyl)piperazin-1-yl)piperidin-1-yl)-5-(1H-pyrazol-3-yl)nicotinamide], the “Degradation of substrate protein BCR-ABL” value at BCR-ABL is given as “A (0% ≤ substrate protein remaining % ≤ 80%)”. In assay [1], the inhibition at 0.5 µM was in the range of 40 to 53% and the inhibition at 2 µM lay within 60 to 80%.
